Data reported in patent US8586596B2, “Compounds as cannabinoid receptor ligands” (AbbVie Inc., priority 2010, dated 2013).
Where two headings read alike, the source gives them in different places.

Tests used:
human CB2 receptors = target: T1, human CB2 receptors (Homo sapiens, UniProt P34972); assay: CB2 radioligand binding assay ([3H]CP 55,940 competition), human
T1 construct: expressed in transfected cells; membrane preparation

rat CB2 receptors = target: T2, rat CB2 receptors (Rattus norvegicus, UniProt Q9QZN9); assay: CB2 radioligand binding assay ([3H]CP 55,940 competition), rat
T2 construct: expressed in transfected cells; membrane preparation
T2 sequence (Q9QZN9 1-360): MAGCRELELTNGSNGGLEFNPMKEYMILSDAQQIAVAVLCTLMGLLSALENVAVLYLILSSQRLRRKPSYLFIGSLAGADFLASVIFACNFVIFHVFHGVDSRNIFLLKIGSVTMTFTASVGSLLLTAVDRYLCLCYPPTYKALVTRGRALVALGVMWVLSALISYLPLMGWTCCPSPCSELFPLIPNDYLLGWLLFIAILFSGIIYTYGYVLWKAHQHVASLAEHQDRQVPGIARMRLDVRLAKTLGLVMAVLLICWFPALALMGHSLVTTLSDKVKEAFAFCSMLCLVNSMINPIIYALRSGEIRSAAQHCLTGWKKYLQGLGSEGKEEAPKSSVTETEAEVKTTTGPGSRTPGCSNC

T1 sequence (P34972 whole entry): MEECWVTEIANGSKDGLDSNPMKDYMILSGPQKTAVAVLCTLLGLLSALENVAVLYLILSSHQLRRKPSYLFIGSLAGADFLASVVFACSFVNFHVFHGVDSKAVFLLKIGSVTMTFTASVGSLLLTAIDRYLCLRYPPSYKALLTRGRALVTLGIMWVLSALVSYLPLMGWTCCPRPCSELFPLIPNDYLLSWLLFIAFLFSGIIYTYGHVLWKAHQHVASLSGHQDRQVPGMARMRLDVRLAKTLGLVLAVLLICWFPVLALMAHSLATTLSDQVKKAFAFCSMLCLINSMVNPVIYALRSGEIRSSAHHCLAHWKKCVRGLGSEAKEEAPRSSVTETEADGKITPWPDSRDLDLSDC

| Structure (SMILES) | Ki (human CB2 receptors) [nM] | Ki (rat CB2 receptors) [nM] | Ki (human CB2 receptors; membranes of HEK293 cells stably expressing human CB2, 0.5 nM [3H]CP 55,940, read-out: human CB2 binding (Ki)) [nM] | Ki (rat CB2 receptors; membranes of HEK293 cells stably expressing rat CB2, 0.5 nM [3H]CP 55,940, read-out: rat CB2 binding (Ki)) [nM] |
| --- | --- | --- | --- | --- |
| CCCCn1/c(=N/C(=O)c2cc(C(F)(F)F)ccc2OC[C@H](C)O)sc2cnn(C)c(=O)c21 [Example 4, N-[(2Z)-3-butyl-5-methyl-4-oxo-4,5-dihydro[1,3]thiazolo[4,5-d]pyridazin-2(3H)-ylidene]-2-{[(2S)-2-hydroxypropyl]oxy}-5-(trifluoromethyl)benzamide] | 36 | 5 | – | – |
| CCCCn1/c(=N/C(=O)c2cc(C(F)(F)F)ccc2OC[C@H](C)O)sc2ncncc21 [Example 3, N-[(2Z)-1-butyl[1,3]thiazolo[5,4-d]pyrimidin-2(1H)-ylidene]-2-{[(2S)-2-hydroxypropyl]oxy}-5-(trifluoromethyl)benzamide] | 10 | 4 | – | – |
| CCCCn1/c(=N/C(=O)c2cc(C(F)(F)F)ccc2OC[C@H](C)O)sc2nccnc21 [Example 2, N-[(2Z)-3-butyl[1,3]thiazolo[4,5-b]pyrazin-2(3H)-ylidene]-2-{[(2S)-2-hydroxypropyl]oxy}-5-(trifluoromethyl)benzamide] | 2 | 4.1 | – | – |
| CCCCn1/c(=N/C(=O)c2cc(C(F)(F)F)ccc2OC[C@H](C)O)sc2ncnc(O)c21 [Example 1, N-[(2Z)-1-butyl-7-hydroxy[1,3]thiazolo[5,4-d]pyrimidin-2(1H)-ylidene]-2-{[(2S)-2-hydroxypropyl]oxy}-5-(trifluoromethyl)benzamide] | – | – | 233 | 157 |
